Activity calls are given as the source filed them. The rule behind the calls is not given here.
How the values were obtained:
[1] = biological target: T1, Fructose-1,6-bisphosphatase 1 (Homo sapiens) (UniProt P09467); experiment: Inhibition of wild-type full-length human liver FBPase expressed in Escherichia coli BL21 (DE3) using FBP as substrate at 10 uM by malachite green dye-based assay; type: single protein
T1 sequence (whole entry): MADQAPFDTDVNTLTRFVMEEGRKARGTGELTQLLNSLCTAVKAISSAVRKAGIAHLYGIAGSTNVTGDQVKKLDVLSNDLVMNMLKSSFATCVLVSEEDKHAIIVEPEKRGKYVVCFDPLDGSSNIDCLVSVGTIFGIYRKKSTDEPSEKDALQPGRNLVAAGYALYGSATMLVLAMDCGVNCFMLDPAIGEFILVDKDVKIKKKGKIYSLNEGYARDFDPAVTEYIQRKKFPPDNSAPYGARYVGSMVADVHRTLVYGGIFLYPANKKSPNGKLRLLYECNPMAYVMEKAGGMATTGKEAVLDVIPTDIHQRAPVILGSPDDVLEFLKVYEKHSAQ

[2] = species on record: Homo sapiens; experiment: Selectivity index, ratio of IC50 for FBPase C183S mutant IC50 for FBPase WT (unknown origin)
[3] = species on record: Homo sapiens; experiment: Selectivity index, ratio of IC50 for FBPase C38S mutant IC50 for FBPase WT (unknown origin)
[4] = species on record: Homo sapiens; experiment: Selectivity index, ratio of IC50 for FBPase C116S mutant IC50 for FBPase WT (unknown origin)
[5] = tested on: Mus musculus; experiment: Suppression of blood glucose concentration in 12 hrs fasted ICR mouse model at 12.5 mg/kg, ip measured upto 120 mins after oral administration of glucose at 2 g/kg for 60 min by oral glucose tolerance test; type: functional, organism-based
[6] = species on record: Homo sapiens; experiment: Selectivity index, ratio of IC50 for FBPase C128S mutant IC50 for FBPase WT (unknown origin)
[7] = tested on: Mus musculus; experiment: Suppression of blood glucose concentration in 12 hrs fasted ICR mouse model at 25 mg/kg, ip measured upto 120 mins after oral administration of glucose at 2 g/kg for 60 min by oral glucose tolerance test; type: functional, organism-based
[8] = species on record: Homo sapiens; experiment: Selectivity index, ratio of IC50 for FBPase N125A mutant IC50 for FBPase WT (unknown origin)
[9] = species on record: Homo sapiens; experiment: Selectivity index, ratio of IC50 for FBPase D127A mutant IC50 for FBPase WT (unknown origin)
[10] = species on record: Homo sapiens; experiment: Selectivity index, ratio of IC50 for FBPase C92S mutant IC50 for FBPase WT (unknown origin)
[11] = species on record: Homo sapiens; experiment: Selectivity index, ratio of IC50 for FBPase R254A mutant IC50 for FBPase WT (unknown origin)
[12] = species on record: Homo sapiens; experiment: Selectivity index, ratio of IC50 for FBPase R243A mutant IC50 for FBPase WT (unknown origin)
[13] = tested on: Mus musculus; experiment: Suppression of blood glucose concentration in 12 hrs fasted db/db mouse model at 12.5 mg/kg, ip measured upto 120 mins after oral administration of glucose at 2 g/kg for 60 min by oral glucose tolerance test; type: functional, organism-based
[14] = biological target: T1, Fructose-1,6-bisphosphatase 1 (Homo sapiens); experiment: Covalent binding affinity to FBPase WT (unknown origin) assessed as maximum peak absorption measured upto 45 mins by UV-visible spectroscopy (reference value: 283 nm); details: time min <=45
[15] = species on record: Homo sapiens; experiment: Selectivity index, ratio of IC50 for FBPase S124A mutant IC50 for FBPase WT (unknown origin)
[16] = species on record: Homo sapiens; experiment: Selectivity index, ratio of IC50 for FBPase WT (unknown origin) to IC50 for FBPase […] mutant IC50 for FBPase WT (unknown origin)
[17] = tested on: Mus musculus; experiment: Hypoglycemic activity in 2 hrs fasted db/db mouse model assessed as reduction in blood glucose AUC at 12.5 mg/kg, ip measured upto 120 mins after oral administration of glucose at 2 g/kg for 60 min by oral glucose tolerance test; type: functional, organism-based
[18] = tested on: Mus musculus; experiment: Hypoglycemic activity in 2 hrs fasted db/db mouse model assessed as reduction in blood glucose AUC at 25 mg/kg, ip measured upto 120 mins after oral administration of glucose at 2 g/kg for 60 min by oral glucose tolerance test; type: functional, organism-based
[19] = tested on: Hepatocyte; experiment: Inhibition of gluconeogenesis in C57BLKS mouse primary hepatocytes assessed as inhibition of glucose output measured after 6 hrs; type: functional, cell-based; details: dose 0.5-100 µmol/L
[20] = species on record: Homo sapiens; experiment: Selectivity index, ratio of IC50 for FBPase C179S mutant IC50 for FBPase WT (unknown origin)
[21] = species on record: Homo sapiens; experiment: Selectivity index, ratio of IC50 for FBPase Y258A mutant IC50 for FBPase WT (unknown origin)
[22] = tested on: c1csc(SSc2nccs2)n1; experiment: Covalent inhibition of FBPase D127A mutant (unknown origin) assessed as Vmax measured upto 45 mins by UV-visible spectrometry analysis; details: Homo sapiens; time min <=45
[23] = tested on: c1csc(SSc2nccs2)n1; experiment: Covalent inhibition of FBPase S124A mutant (unknown origin) assessed as Vmax measured upto 45 mins by UV-visible spectrometry analysis; details: Homo sapiens; time min <=45
[24] = tested on: c1csc(SSc2nccs2)n1; experiment: Covalent inhibition of FBPase C116S mutant (unknown origin) assessed as Vmax measured upto 45 mins by UV-visible spectrometry analysis; details: Homo sapiens
[25] = tested on: c1csc(SSc2nccs2)n1; experiment: Covalent inhibition of FBPase C92S mutant (unknown origin) assessed as Vmax measured upto 45 mins by UV-visible spectrometry analysis; details: Homo sapiens
[26] = tested on: c1csc(SSc2nccs2)n1; experiment: Covalent inhibition of FBPase R243A mutant (unknown origin) assessed as Vmax measured upto 45 mins by UV-visible spectrometry analysis; details: Homo sapiens; time min <=45
[27] = tested on: c1csc(SSc2nccs2)n1; experiment: Covalent inhibition of FBPase C38S mutant (unknown origin) assessed as Vmax measured at 45 mins by UV-visible spectrometry analysis; details: Homo sapiens
[28] = tested on: c1csc(SSc2nccs2)n1; experiment: Covalent inhibition of FBPase C183S (unknown origin) upto 45 mins; details: Homo sapiens; time min <=45
[29] = tested on: c1csc(SSc2nccs2)n1; experiment: Covalent inhibition of FBPase C179S mutant (unknown origin) assessed as Vmax measured upto 45 mins by UV-visible spectrometry analysis; details: Homo sapiens; time min <=45
[30] = tested on: c1csc(SSc2nccs2)n1; experiment: Covalent inhibition of FBPase R254A mutant (unknown origin) assessed as Vmax measured upto 45 mins by UV-visible spectrometry analysis; details: Homo sapiens; time min <=45
[31] = tested on: c1csc(SSc2nccs2)n1; experiment: Covalent inhibition of FBPase C281S mutant (unknown origin) assessed as Vmax measured upto 45 mins by UV-visible spectrometry analysis; details: Homo sapiens; time min <=45
[32] = tested on: c1csc(SSc2nccs2)n1; experiment: Covalent inhibition of FBPase C183S (unknown origin) assessed as Vmax measured upto 45 mins; details: Homo sapiens; time min <=45
[33] = tested on: c1csc(SSc2nccs2)n1; experiment: Covalent inhibition of FBPase C128S mutant (unknown origin) assessed as Vmax measured upto 45 mins by UV-visible spectrometry analysis; details: Homo sapiens; time min <=45
[34] = tested on: c1csc(SSc2nccs2)n1; experiment: Covalent inhibition of FBPase Y258A mutant (unknown origin) assessed as Vmax measured upto 45 mins by UV-visible spectrometry analysis; details: Homo sapiens; time min <=45
[35] = tested on: c1csc(SSc2nccs2)n1; experiment: Covalent inhibition of FBPase N125A mutant (unknown origin) assessed as Vmax measured upto 45 mins by UV-visible spectrometry analysis; details: Homo sapiens; time min <=45

With `O=[N+]([O-])c1ccc2nc(SSc3nc4ccc([N+](=O)[O-])cc4s3)sc2c1` the inhibition [1] was 18.4%.

In the case of `S=C(SSC(=S)n1c2ccccc2c2ccccc21)n1c2ccccc2c2ccccc21`, the inhibition [1] is reported as 39.7%.

With `CCN(CC)C(=O)CSC(=S)N(CC)CC` the inhibition [1] was 3.22%.

`CCN(CC)C(=O)SSC(=O)N(CC)CC` gave an inhibition [1] of 2.59%.

For `S=C(SSC(=S)N1CC2CCCCC2C1)N1CC2CCCCC2C1` (centres undefined), the inhibition [1] was 37.2%.

Compound `CN1CCN(C(=S)SSC(=S)N2CCN(C)CC2)CC1` has an inhibition [1] of 26.2%.

`S=C(SSC(=S)N1CCc2ccccc2C1)N1CCc2ccccc2C1` was tested, and the inhibition [1] was 38.4%.

Work on `CCCN(CCC)C(=S)SSC(=S)N(CCC)CCC` yielded an inhibition [1] of 13.6%.

Work on `CCN(CC)C(=S)SCSC(=S)N(CC)CC` yielded an inhibition [1] of 12.4%.

With `O=C(O)C1CCN(C(=S)SSC(=S)N2CCC(C(=O)O)CC2)CC1` the inhibition [1] was 47.6%.

For `S=C(SSC(=S)N1CCCc2ccccc21)N1CCCc2ccccc21`, the inhibition [1] was 9.87%.

`c1csc(SSc2nccs2)n1` was tested, and the Ratio IC50 [2] was 0.8, the Ratio IC50 [3] was 1.1 and the Ratio IC50 [4] was 0.7. The inhibition [5] was “Active”, the Ratio IC50 [6] was over 1850 and the inhibition [7] was “Active”. For the same compound, the Ratio IC50 [8] was over 926, the Ratio IC50 [9] was 0.7 and the Ratio IC50 [10] was 0.5. The Ratio IC50 [11] was 2.3, the Ratio IC50 [12] was over 1 and the inhibition [13] was “Active”. For the same compound, the lambda max [14] was 306 nm, the Ratio IC50 [15] was 1.7 and the Ratio IC50 [16] was 0.7. The inhibition [17] was “Active”, the inhibition [18] was “Active” and the inhibition [19] was “Dose-dependent effect”. It also gave a Ratio IC50 [20] of 0.6 and a Ratio IC50 [21] of 11.5.

`C1CCC(SSC2CCCCC2)CC1` gave an inhibition [1] of 12.4%.

`S=C(SSC(=S)N1CCC1)N1CCC1` was tested, and the inhibition [1] was 28.5%.

With `c1ccc(SSc2ccccc2)cc1` the inhibition [1] was 10.4%.

Compound `C[C@@H]1CN(C(=S)SSC(=S)N2C[C@@H](C)O[C@@H](C)C2)C[C@H](C)O1` has an inhibition [1] of 37.7%.

In the case of “Fructose-1,6-bisphosphatase 1 (Homo sapiens) (from UniProt P09467) UNDEFINED MUTATION”, the Vmax [22] is reported as 1.9 U/mg, the Vmax [23] is reported as 5 U/mg and the Vmax [24] is reported as 1.6 U/mg. For the same compound, the Vmax [25] was 1.6 U/mg, the Vmax [26] was 2.5 U/mg and the Vmax [27] was 2.7 U/mg. The Vmax [28] was 0.21 U/mg, the Vmax [29] was 2.3 U/mg and the Vmax [30] was 3.5 U/mg. The Vmax [31] was 3.6 U/mg, the Vmax [32] was 3.8 U/mg and the Vmax [33] was 2.7 U/mg. It also gave a Vmax [34] of 5 U/mg and a Vmax [35] of 1.5 U/mg.

`c1csc(SSc2cccs2)c1` showed an inhibition [1] of 50.6%.

For `CCN(CC)C(=S)SC(=S)N(CC)CC`, the inhibition [1] was 18%.

Work on `Cc1cccn1C(=S)SSC(=S)n1cccc1C` yielded an inhibition [1] of 29.4%.

Compound `S=C(SSC(=S)n1ncc2ccccc21)n1ncc2ccccc21` has an inhibition [1] of 47.6%.

For `CCN(CC)C(=S)CSC(=S)N(CC)CC`, the inhibition [1] was 21.4%.

`COc1ccc2nc(SSc3nc4ccc(OC)cc4s3)sc2c1` was tested, and the inhibition [1] was 44.7%.

Work on `Cn1ccnc1SSc1nccn1C` yielded an inhibition [1] of 9.65%.

`CN(Cc1ccccc1)C(=S)SSC(=S)N(C)Cc1ccccc1` gave an inhibition [1] of 3.09%.

`CN(C(=S)SSC(=S)N(C)c1ccc(-c2ccccc2)cc1)c1ccc(-c2ccccc2)cc1` showed an inhibition [1] of 32.4%.

In the case of `CN(C(=S)SSC(=S)N(C)c1ccccc1)c1ccccc1`, the inhibition [1] is reported as 35.7%.

Work on `CC(C)N(C(=S)SSC(=S)N(C(C)C)C(C)C)C(C)C` yielded an inhibition [1] of 47.8%.

With `S=C(SSC(=S)N1CCOCC1)N1CCOCC1` the inhibition [1] was 26.1%.

`c1csc(SSC2CCCC2)n1` showed an inhibition [1] of 34.3%.

`S=C(SSC(=S)N1CCc2ccccc21)N1CCc2ccccc21` was tested, and the inhibition [1] was 39.9%.

In the case of `Clc1ccc(SSc2ccc(Cl)cc2)cc1`, the inhibition [1] is reported as 18%.

From ChEMBL document CHEMBL4706520, “Development of disulfide-derived fructose-1,6-bisphosphatase (FBPase) covalent inhibitors for the treatment of type 2 diabetes” (Eur J Med Chem, 2020)
